Among the data in ChEMBL document CHEMBL3244399, “Antifungal agents. 4. Chemical modification of antibiotics from Polyangium cellulosum var. fulvum. Ester and amide analogues of ambruticin” (1979) are MIC and inhibition values, retold here.

For one assay, the system named is Histoplasma capsulatum. Kind of assay: Antifungal activity against Histoplasma capsulatum assessed as growth inhibition by standard broth dilution method. It is filed as functional.
For another assay, the system named is Candida albicans. Nature of the assay: Antifungal activity against Candida albicans assessed as growth inhibition by standard broth dilution method. It is filed as functional, organism-based. For orientation: Dilution methods test growth across graded concentrations, often in twofold steps.
Assay [1] is described as follows: Antifungal activity against Microsporum fulvum assessed as growth inhibition by standard broth dilution method. The assay is classed as functional. To be noted: Arthroderma fulvum.
The test system of the next assay is Streptococcus pyogenes. Kind of assay: Antifungal activity against Streptococcus pyogenes assessed as growth inhibition by standard broth dilution method. It is filed as functional.

≈ marks a conversion by molar mass, not a printed value. Calls of active or inactive are those of the source. The calls are words filed in the database; no cut-off is given here.

A word on the MIC: it is the lowest concentration found to suppress growth. `CC[C@H]1O[C@@H](/C(C)=C/[C@H](C)/C=C/[C@H]2[C@@H](C)[C@@H]2/C=C/[C@@H]2O[C@H](CC(=O)OC)C[C@H](OC(=O)Nc3ccc(Cl)cc3)[C@H]2OC(=O)Nc2ccc(Cl)cc2)CC=C1C`: the minimum inhibitory concentration (MIC) in the assay on Histoplasma capsulatum was 50 µg/mL (≈ 62.8 µM); in assay [1], above 50 µg/mL. Besides, in the assay on Candida albicans, the inhibition entry was “inactive”. The MIC entry in the assay on Streptococcus pyogenes was “inactive”.
Turning to `CC[C@H]1O[C@@H](/C(C)=C/[C@H](C)/C=C/[C@H]2[C@@H](C)[C@@H]2/C=C/[C@@H]2O[C@H](CC(=O)OC)C[C@H](OC=O)[C@H]2OC=O)CC=C1C`, the figures for the MIC (in the assay with Histoplasma capsulatum; in assay [1]) were 3.12 µg/mL (≈ 5.73 µM) and 12.5 µg/mL (≈ 22.9 µM), respectively. Also, the inhibition result in the assay on Candida albicans was “inactive”. In the assay with Streptococcus pyogenes, the MIC entry was “inactive”.
In the case of `CC[C@H]1O[C@@H](/C(C)=C/[C@H](C)/C=C/[C@H]2[C@@H](C)[C@@H]2/C=C/[C@@H]2O[C@H](CC(=O)N3CCCCC3)C[C@H](OC(C)=O)[C@H]2OC(C)=O)CC=C1C`, the inhibition entry with Candida albicans was “inactive”.
`CCCCNC(=O)C[C@@H]1C[C@H](OC(C)=O)[C@@H](OC(C)=O)[C@H](/C=C/[C@H]2[C@H](C)[C@@H]2/C=C/[C@@H](C)/C=C(\C)[C@H]2CC=C(C)[C@@H](CC)O2)O1`: the inhibition entry in the assay with Candida albicans was “inactive”.
Turning to `CC[C@H]1O[C@@H](/C(C)=C/[C@H](C)/C=C/[C@H]2[C@@H](C)[C@@H]2/C=C/[C@@H]2O[C@H](CC(=O)NCc3ccccc3)C[C@H](O)[C@H]2O)CC=C1C`, the figures for the minimum inhibitory concentration (MIC) (in the assay with Histoplasma capsulatum; in assay [1]; in the assay with Streptococcus pyogenes) were 6.25 µg/mL (≈ 11.1 µM), above 50 µg/mL and 3.12 µg/mL (≈ 5.53 µM), respectively. Also, the inhibition result with Candida albicans is “inactive”.
In the case of `CC[C@H]1O[C@@H](/C(C)=C/[C@H](C)/C=C/[C@H]2[C@@H](C)[C@@H]2/C=C/[C@@H]2O[C@H](CC(=O)NCc3ccccc3)C[C@H](OC(C)=O)[C@H]2OC(C)=O)CC=C1C`, in the assay on Candida albicans, the inhibition entry was “inactive”.
For `CC[C@H]1O[C@@H](/C(C)=C/[C@H](C)/C=C/[C@H]2[C@@H](C)[C@@H]2/C=C/[C@@H]2O[C@H](CC(=O)O)C[C@H](OC(C)=O)[C@H]2OC(C)=O)CC=C1C` (relative stereo), the values for the MIC (in the assay on Histoplasma capsulatum; in assay [1]; in the assay with Streptococcus pyogenes) were 3.12 µg/mL (≈ 5.58 µM), 3.12 µg/mL (≈ 5.58 µM) and 6.25 µg/mL (≈ 11.2 µM), respectively. The inhibition entry in the assay on Candida albicans is “inactive”.
Take `CC[C@H]1O[C@@H](/C(C)=C/[C@H](C)/C=C/[C@H]2[C@@H](C)[C@@H]2/C=C/[C@@H]2O[C@H](CC(=O)NC3CCCCC3)C[C@H](O)[C@H]2O)CC=C1C`: the MIC was found to be 3.12 µg/mL (≈ 5.61 µM) in the assay on Histoplasma capsulatum and 25 µg/mL (≈ 45 µM) in assay [1]. For the same molecule, the inhibition entry with Candida albicans is “inactive”.
As to `CC[C@H]1O[C@@H](/C(C)=C/[C@H](C)/C=C/[C@H]2[C@@H](C)[C@@H]2/C=C/[C@@H]2O[C@H](CC(=O)N3CCCC3)C[C@H](OC(C)=O)[C@H]2OC(C)=O)CC=C1C`, the MIC in the assay with Histoplasma capsulatum was 50 µg/mL (≈ 81.7 µM); in assay [1], above 50 µg/mL. Moreover, the inhibition result with Candida albicans was “inactive”. In addition, the MIC entry in the assay on Streptococcus pyogenes is “inactive”.
As for `CC[C@H]1O[C@@H](/C(C)=C/[C@H](C)/C=C/[C@H]2[C@@H](C)[C@@H]2/C=C/[C@@H]2O[C@H](CC(=O)N3CCCCC3)C[C@H](O)[C@H]2O)CC=C1C`, the MIC in the assay with Histoplasma capsulatum was 3.12 µg/mL (≈ 5.76 µM); in assay [1], 0.78 µg/mL (≈ 1.44 µM); with Streptococcus pyogenes it was 1.56 µg/mL (≈ 2.88 µM). For the same molecule, the inhibition result with Candida albicans is “inactive”.
As to `CCCC(=O)O[C@H]1[C@H](/C=C/[C@H]2[C@H](C)[C@@H]2/C=C/[C@@H](C)/C=C(\C)[C@H]2CC=C(C)[C@@H](CC)O2)O[C@H](CC(=O)O)C[C@@H]1OC(=O)CCC`, the MIC in the assay with Histoplasma capsulatum was 12.5 µg/mL (≈ 20.3 µM); in assay [1] it was above 50 µg/mL; in the assay on Streptococcus pyogenes, 6.25 µg/mL (≈ 10.2 µM). For the same molecule, in the assay with Candida albicans, the inhibition entry is “inactive”.
Taken in the same sequence, the figures for `CC[C@H]1O[C@@H](/C(C)=C/[C@H](C)/C=C/[C@H]2[C@@H](C)[C@@H]2/C=C/[C@@H]2O[C@H](CC(=O)O)C[C@H](O)[C@H]2O)CC=C1C` (relative stereo) [AMBRUTICIN] were 0.195 µg/mL (≈ 0.411 µM), 0.098 µg/mL (≈ 0.206 µM), 25 µg/mL (≈ 52.7 µM) and “inactive”.
Take `CC[C@H]1O[C@@H](/C(C)=C/[C@H](C)/C=C/[C@H]2[C@@H](C)[C@@H]2/C=C/[C@@H]2O[C@H](CC(=O)NC3CCCCC3)C[C@H](OC(C)=O)[C@H]2OC(C)=O)CC=C1C`: the MIC (in the assay with Histoplasma capsulatum; in assay [1]) was above 50 µg/mL in each case. The inhibition result in the assay on Candida albicans was “inactive”. The MIC result in the assay with Streptococcus pyogenes is “inactive”.
As to `CCC(=O)O[C@H]1[C@H](/C=C/[C@H]2[C@H](C)[C@@H]2/C=C/[C@@H](C)/C=C(\C)[C@H]2CC=C(C)[C@@H](CC)O2)O[C@H](CC(=O)O)C[C@@H]1OC(=O)CC`, the MIC with Histoplasma capsulatum is 6.25 µg/mL (≈ 10.7 µM); in assay [1] it was above 50 µg/mL; with Streptococcus pyogenes, 6.25 µg/mL (≈ 10.7 µM). Also, in the assay with Candida albicans, the inhibition result was “inactive”.
As to `CC[C@H]1O[C@@H](/C(C)=C/[C@H](C)/C=C/[C@H]2[C@@H](C)[C@@H]2/C=C/[C@@H]2O[C@H](CC(=O)N3CCCC3)C[C@H](O)[C@H]2O)CC=C1C`, the MIC in the assay on Histoplasma capsulatum was determined as 0.39 µg/mL (≈ 0.739 µM); in assay [1], 0.78 µg/mL (≈ 1.48 µM); with Streptococcus pyogenes, 3.12 µg/mL (≈ 5.91 µM). Further, the inhibition result with Candida albicans was “inactive”.
For `CC[C@H]1O[C@@H](/C(C)=C/[C@H](C)/C=C/[C@H]2[C@@H](C)[C@@H]2/C=C/[C@@H]2O[C@H](CC(=O)OC)C[C@H](OC(=O)Nc3ccccc3)[C@H]2OC(=O)Nc2ccccc2)CC=C1C` the same measures were 25 µg/mL (≈ 34.4 µM), above 50 µg/mL, “inactive” and “inactive”.
As for `CC[C@H]1O[C@@H](/C(C)=C/[C@H](C)/C=C/[C@H]2[C@@H](C)[C@@H]2/C=C/[C@@H]2O[C@H](CC(=O)O)C[C@H](OC=O)[C@H]2OC=O)CC=C1C`, the minimum inhibitory concentration (MIC) with Histoplasma capsulatum was found to be 1.56 µg/mL (≈ 2.94 µM); in assay [1] it was 1.56 µg/mL (≈ 2.94 µM); in the assay on Streptococcus pyogenes it was 25 µg/mL (≈ 47.1 µM). Also, the inhibition result in the assay with Candida albicans is “inactive”.
`CC[C@H]1O[C@@H](/C(C)=C/[C@H](C)/C=C/[C@H]2[C@@H](C)[C@@H]2/C=C/[C@@H]2O[C@H](CC(=O)OC)C[C@H](O)[C@H]2O)CC=C1C` (relative stereo): the MIC (with Histoplasma capsulatum; in assay [1]) was 0.39 µg/mL (≈ 0.798 µM) throughout. In addition, the inhibition result in the assay with Candida albicans is “inactive”. Further, in the assay with Streptococcus pyogenes, the MIC entry was “inactive”.
With `CC[C@H]1O[C@@H](/C(C)=C/[C@H](C)/C=C/[C@H]2[C@@H](C)[C@@H]2/C=C/[C@@H]2O[C@H](CC(=O)N(C(=O)NC3CCCCC3)C3CCCCC3)C[C@H](O)[C@H]2O)CC=C1C`, the MIC (with Histoplasma capsulatum; in assay [1]) was above 50 µg/mL in each case. In the assay with Candida albicans, the inhibition result is “inactive”. Also, the MIC result in the assay with Streptococcus pyogenes is “inactive”.
Regarding `CC[C@H]1O[C@@H](/C(C)=C/[C@H](C)/C=C/[C@H]2[C@@H](C)[C@@H]2/C=C/[C@@H]2O[C@H](CC(=O)OC)C[C@H](OC(C)=O)[C@H]2OC(C)=O)CC=C1C` (relative stereo), the minimum inhibitory concentration (MIC) in the assay with Histoplasma capsulatum is 12.5 µg/mL (≈ 21.8 µM); in assay [1], above 50 µg/mL. In addition, the inhibition entry in the assay with Candida albicans is “inactive”. The MIC entry in the assay on Streptococcus pyogenes is “inactive”.
As to `CC[C@H]1O[C@@H](/C(C)=C/[C@H](C)/C=C/[C@H]2[C@@H](C)[C@@H]2/C=C/[C@@H]2O[C@H](CC(=O)OC)C[C@@H]3OC(=O)O[C@@H]23)CC=C1C` (relative stereo), the MIC in the assay with Histoplasma capsulatum was 0.78 µg/mL (≈ 1.52 µM); in assay [1] it was 0.39 µg/mL (≈ 0.758 µM). Also, in the assay on Candida albicans, the inhibition result was “inactive”. The MIC entry in the assay with Streptococcus pyogenes was “inactive”.
Take `CCCCNC(=O)C[C@@H]1C[C@H](O)[C@@H](O)[C@H](/C=C/[C@H]2[C@H](C)[C@@H]2/C=C/[C@@H](C)/C=C(\C)[C@H]2CC=C(C)[C@@H](CC)O2)O1`: the results for the minimal inhibitory concentration (MIC) (with Histoplasma capsulatum; in assay [1]; in the assay on Streptococcus pyogenes) were 1.56 µg/mL (≈ 2.94 µM), 6.25 µg/mL (≈ 11.8 µM) and 1.56 µg/mL (≈ 2.94 µM), respectively. Besides, in the assay with Candida albicans, the inhibition result is “inactive”.
As for `CC[C@H]1O[C@@H](/C(C)=C/[C@H](C)/C=C/[C@H]2[C@@H](C)[C@@H]2/C=C/[C@@H]2O[C@H](CC(=O)N(C(=O)NC3CCCCC3)C3CCCCC3)C[C@H](OC(C)=O)[C@H]2OC(C)=O)CC=C1C`, the MIC (with Histoplasma capsulatum; in assay [1]) was above 50 µg/mL in each case. In addition, in the assay on Candida albicans, the inhibition result is “inactive”. Further, the MIC entry in the assay on Streptococcus pyogenes was “inactive”.
